Experimental data published in patent US10487313B2, “Efficient induction of definitive endoderm from pluripotent stem cells” (Novo Nordisk A/S, priority 2011, dated 2019).
Entries after “also recorded” stand apart in the source; their conditions may differ.

What was measured:
[1] = tested on: chIPS4 cells; assay: OCT4 and SOX17 protein ICC quantification during DE induction, DEF culture system; assay type: cell-based, human; conditions: for OCT4 ICC % positive cells / SOX17 ICC % positive cells: CHIR 3 μM D1 then Activin A D2-3, or D'Amour protocol
Description: (§1) Human embryonic stem (hES) cells SA121 and chIPS4 (Cellartis) were grown on human fibronectin (Sigma) in DEF culture media (Cellartis) with 30 ng/ml bFGF (Invitrogen) and 10 ng/ml Noggin (Peprotech) in 6-96 well plates. Cells were single cell passaged with Rock inhibitor Y-27632 (Calbiochem) and seeded at a density of 40000 cells/cm2 for experiments. Experiments were initiated 4 d after passage.
(§2) Confluent cultures were washed once in RPMI1640 (Invitrogen) before 24 hour pre-treatment with 0,5-7μM CHIR99021 (Stemgent) in RPMI. Control cells were left untreated in RPMI and D'Amour cells were either left in RPMI or treated with AA (Peprotech)+Wnt3a (R&D Systems) without pre-treatment depending on experimental setup.
(§3) After 24 hours, pretreated and control cells were washed once with RPMI before adding 100 ng/ml AA in RPMI. D'Amour cells were also treated with 100 ng/ml AA but with 0,2% FBS instead of B27. 24 h later, 2% B27 (Invitrogen) was added to the AA media for 2-3 d. Control cells were treated with B27 to prevent cell death and D'Amour cells with 2% FBS according to published protocol. Media was changed every day.
• Day 1: Cells were washed carefully in prewarmed (37° C.) RPMI before starting the differentiation. Day1 medium was premixed (CHIR 3 μM in prewarmed RPMI+PEST) and gently added to cell culture. Volumes were adjusted according to plate formats. • Day 2: Cells were washed carefully in prewarmed (37° C.) RPMI before media change. Day2 medium was premixed (100 ng/ml Activin A in prewarmed RPMI+0.1% PEST) and gently added to cell culture. • Day 3: Day3&4 mediums were premixed (100 ng/ml Activin A and 2% B27 in prewarmed RPMI+0.1% PEST) and gently added to cell culture. • Day 4: DE was harvested or reseeded for further differentiation. Cells were checked under the microscope every day.
Cells were washed in PBS+/+ and fixed in 4% formaldehyde for 30 min (10% formaline, VWR). The cells were then washed again three times in PBS and left in PBS (4° C.) until staining. Fixed cells were washed with PBS once, then permeabilized with 0.5% Triton X-100 in PBS for 6 min, washed in PBS and blocked with TNB buffer (0.1 M Tris-HCL pH 7.5, 0.15 M NaCl, 0.5% Blocking Reagent (Perkin Elmer)) for 30 min. Primary antibodies (goat-anti-SOX17 (AF1924, RnD Systems); goat-anti-Brachyury (AF2085, RnD Systems); mouse-anti-OCT4 (sc5279, SantaCruz Biotechnology); goat-anti-PDX1 (AB47383, Abcam)) were added in 0.1% TritonX-100+PBS for 1 h in RT or 4° C. O/N. After a thorough washing step in PBS, secondary antibodies were added together with DAPI in 0.1% Triton X-100+PBS for 45 min at RT, washed thoroughly in PBS and left in PBS until photodocumentation.
Undifferentiated ChIPS4 cells (d0) were either pre-treated for 24 h with CHIR (3 μM) or directly exposed to AA (100 ng/ml) and Wnta3a (25 ng/ml) according to Kroon et al 2008. The cells were then washed and AA was added for 1-4 d.
In addition, the most striking difference between the protocols could be seen in terms of morphology with a much higher degree of cell death during D'Amour treatment. To further strengthen the results, a quantification of SOX17 protein expression was thus performed. chIPS4 cells treated with either the CHIR- or D'Amour-protocol were fixed and stained using a SOX17-specific ab and the images were quantified in respect of total amounts and the percentage of SOX17-positive cells. […] In addition, the total amount of CHIR pre-treated cells was 25% higher than the number seen after D'Amour treatment.

[2] = tested on: SA121 hES and chIPS4 iPS cells; assay: Quantitative real-time PCR of PS and DE markers (Brachyury, SOX17) during DE induction; assay type: cell-based, human
Description: as §1, §2, §3
RNA samples were collected after 24 h pre-treatment (D1), after 1 day of AA treatment (D2) and after 1-2 d of AA+B27 treatment (D3-4). Total RNA was extracted with the Rneasy Plus Mini kit (Qiagen) and quantitative real-time PCR was performed using the StepOnePLus system (Applied Biosystems).
Undifferentiated SA121 hES and chIPS4 iPS cells in DEF media (DO) were cultured either in RPMI without CHIR (Ctrl D1) or treated for 24 h with CHIR in RPMI (CHIR D1). The cells were then washed to ensure absence of CHIR and then both conditions were treated with 1 d AA (Ctrl and CHIR d2). […] T fold inductions after 24 h CHIR treatment spanned between 500-100000 compared to undifferentiated cells (d0). T protein levels were also confirmed with ICC (FIG. 2C).
The efficiency levels for both T and SOX17 were highly robust (n>60) and confirmed with IHC and SOX17 quantifications (FIG. 2C and Table 2.). […] SOX17 expression peaked already after one day of AA treatment when cells were subjected to CHIR for 24 h before AA induction.
hES SA121 and ChIPS4 cells were treated with either CHIR (3 μM), BIO (0.5 μM), Wnt3a (200 ng/ml) or AA alone (100 ng/ml) for 24 h prior to AA addition to show CHIR specificity (d1). Additionally, D'Amour (protocol as described in Kroon et al 2008) was tested in parallel.
Chir was titrated at concentrations between 1-7 uM and analyzed after 24 h Chir treatment (D1) and after 2 d of following AA treatment (D3).

[3] = 24 h CHIR (2-7 μM) in RPMI-1640, then AA containing medium

Question: What does the source list for `Cc1c[nH]c(-c2cnc(NCCNc3ccc(C#N)cn3)nc2-c2ccc(Cl)cc2Cl)n1` [CHIR, CHIR99021]?
Answer: OCT4 ICC % positive cells ([1]; chIPS4, D1): 91.2%; SOX17 ICC % positive cells ([1]; chIPS4, D1): 0.9%; OCT4 ICC % positive cells ([1]; chIPS4, D2): 3.1%; SOX17 ICC % positive cells ([1]; chIPS4, D2): 68.8%; OCT4 ICC % positive cells ([1]; chIPS4, D3): 3.7%; SOX17 ICC % positive cells ([1]; chIPS4, D3): 91.5%; total amount of cells higher than after D'Amour treatment ([1]; chIPS4, d3, image quantification): 25%; time of SOX17 mRNA expression peak [2, 3]: 2 days; time of SOX17 protein expression peak [2, 3]: 3 to 4 days; Sox17 expression ([2]; CHIR 1 uM, 2 d after AA treatment (D3)): significantly lower; Brachyury induction ([2]; CHIR 3 uM, after 24 h treatment (D1)): significantly seen; also recorded: significantly upregulated; DE induction after subsequent AA stimulation ([2]; CHIR concentrations below 2 μM, after 72 hrs): not induced; Brachyury (T) fold induction compared to undifferentiated cells ([2]; after 24 h CHIR treatment (D1), n>60): 500-100000 fold
